# Measurements published in patent US5496855A, “Anti-inflammatory compounds” (SmithKline Beecham Corp., priority 1995, dated 1996).
# Test system: Arachidonic acid induced ear inflammation
# Assay: Assay (h): Arachidonic acid induced ear inflammation (ear edema, MPO)
# Format: in vivo, mouse
# Conditions: 1 mg/ear
# Method: Male Balb/c inbred mice are obtained from Charle River Breeding Laboratories (Kingston, N.Y.). Within a single experiment mice (22-25 g) are age-matched. These in vivo experiments typically involve the use of 5-6 animals/group.
# On the day of the assay, partially thawed ear tissues are minced and then homogenized (10% w/v) with a Tissumizer homogenizer (Tekmar Co.) in 50 mM phosphate buffer (pH 6) containing 0.5% HTAB. The tissue homogenates are taken through three cycles of freeze-thaw, followed by brief sonication (10 sec). The method of Bradley et at. is used with modifications as described. […] Supernatant MPO activity is quantified kinetically (change in absorbance measured over 3 min, sampled at 15-sec intervals) using a Beckman DU-7 spectrophotometer and a Kinetics Analysis package (Beckman Instruments, Inc.). One unit of MPO activity is defined as that degrading one micromole of peroxide per minute at 25° C.
# Arachidonic acid is dissolved in acetone (1 mg/ear) to the left ear of BALB/c male mice. The thickness of both cars is measured with a constant pressure thickness guage 1 hour after treatment and the data expressed as the change in thickness between treated and untreated ears. Test compounds or vehicle are given at the time of AA application. The inflammatory cell infiltration is measured by MPO activity as described above in the TPA ear edema assay. After the edema measurements are made, the inflamed ears are removed and assayed for MPO activity.
smiles,measurement,value
"NC(=O)N(O)CCC(CSc1ccc(Cc2ccccc2)cc1)NC(=O)CCCCCCc1ccccc1 (racemic) [Example 1, N-[3-(7-phenylheptylamido)-4-(4-phenylmethyl)phenylthio]-butyl-N-hydroxy urea]","MPO, AA ear model",-53%
same,"reduction in ear swelling, AA ear model",-36%
